ChEMBL document CHEMBL1201862, “PubChem BioAssay data set” (2004)
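These data come from cells grown in 96-well plates and exposed to compound for 48 hours at five concentrations. GI50 is the concentration that inhibits growth by half.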 Active and inactive are the calls of the source. No stated cut-off is given here; in the data, active = GI50 up to about 1.1 µM and inactive = higher.

What was measured:
Test in all cases: inhibition of tumour cell growth, NCI panel, 48 h
[1] = tested on: SNB-75
[2] = tested on: UACC-62
[3] = tested on: NCI-H226
[4] = tested on: A498
[5] = tested on: 786-0
[6] = tested on: M14
[7] = tested on: SK-MEL-5
[8] = tested on: CAKI-1
[9] = tested on: K562
[10] = tested on: SF-295
[11] = tested on: SN12C
[12] = tested on: SK-MEL-28
[13] = tested on: SW-620
[14] = tested on: OVCAR-8
[15] = tested on: PC-3
[16] = tested on: KM12
[17] = tested on: NCI-H23
[18] = tested on: MOLT-4
[19] = tested on: HCT-116
[20] = tested on: OVCAR-3

Row | Structure (SMILES) | GI50 [1] | GI50 [2] | GI50 [3] | GI50 [4] | GI50 [5] | GI50 [6] | GI50 [7] | GI50 [8] | GI50 [9] | GI50 [10] | GI50 [11] | GI50 [12] | GI50 [13] | GI50 [14] | GI50 [15] | GI50 [16] | GI50 [17] | GI50 [18] | GI50 [19] | GI50 [20]
1 | [N-]=[N+]=CC(=O)CCC(N)C(=O)O (configuration not stated) | 23.1 µM (inactive) | 2.88 µM (inactive) | 39.6 µM (inactive) | 24.8 µM (inactive) | 2.14 µM (inactive) | 1.33 µM (inactive) | 1.22 µM (inactive) | 3.8 µM (inactive) | 1.32 µM (inactive) | 1.28 µM (inactive) | 2.77 µM (inactive) | 2.8 µM (inactive) | 2.31 µM (inactive) | 2.02 µM (inactive) | 0.741 µM (active) | 0.541 µM (active) | 4.42 µM (inactive) | 0.721 µM (active) |  | 
2 | CN(C)CCOC1(Cc2ccc(Cl)cc2Cl)CCC(C(C)(C)C)CC1 (configuration not stated) | 4.27 µM (inactive) | 7.23 µM (inactive) |  | 1.83 µM (inactive) | 1.58 µM (inactive) | 1.54 µM (inactive) | 2.36 µM (inactive) | 15.9 µM (inactive) | 1.69 µM (inactive) | 2.09 µM (inactive) | 1.73 µM (inactive) | 1.47 µM (inactive) | 2.4 µM (inactive) | 1.63 µM (inactive) | 1.68 µM (inactive) | 1.72 µM (inactive) | 1.91 µM (inactive) | 1.85 µM (inactive) | 1.95 µM (inactive) | 2.42 µM (inactive)
3 | CCN(CC)CCCC(C)Nc1ccnc2cc(Cl)ccc12 (configuration not stated) [CHLOROQUINE PHOSPHATE] | > 60.5 µM (inactive) | 28.8 µM (inactive) |  | 24.3 µM (inactive) | 11.7 µM (inactive) | 15 µM (inactive) | 26.2 µM (inactive) | 20.8 µM (inactive) | 12.4 µM (inactive) | 21 µM (inactive) | 34.9 µM (inactive) | 20.6 µM (inactive) | > 57.4 µM (inactive) | 33.4 µM (inactive) | 19 µM (inactive) | 31.8 µM (inactive) | > 84.7 µM (inactive) | 15.2 µM (inactive) | 12 µM (inactive) | 97.1 µM (inactive)
4 | O=c1c2cc([N+](=O)[O-])ccc2n2n1Cc1ccccc1C2 | > 100 µM (inactive) | > 100 µM (inactive) | > 100 µM (inactive) | 63.8 µM (inactive) | > 100 µM (inactive) |  | 84.3 µM (inactive) | 75 µM (inactive) | > 100 µM (inactive) | > 100 µM (inactive) | > 100 µM (inactive) | > 100 µM (inactive) | > 100 µM (inactive) | > 100 µM (inactive) | 32.4 µM (inactive) | > 100 µM (inactive) | > 100 µM (inactive) | 35.8 µM (inactive) | > 100 µM (inactive) | > 100 µM (inactive)
5 | CNc1ccc(C(=O)CC(O)CCC(C)C2OC(=O)CC(O)CC(=O)CC(O)CC(O)CC(O)CC(O)CC3(O)CC(O)C(C(=O)NCCN(C)C)C(CC(OC4OC(C)C(O)C(NC(=O)CN5CCN(C)CC5)C4O)\C=C/C=C\C=C/C=C/C=C/C=C\C=C/C2C)O3)cc1 (configuration not stated) | > 100 µM (inactive) | 46.2 µM (inactive) | > 100 µM (inactive) | 2.56 µM (inactive) | 12.9 µM (inactive) | 30.8 µM (inactive) | 2.81 µM (inactive) | > 100 µM (inactive) | 3.2 µM (inactive) | 25.2 µM (inactive) | 3.21 µM (inactive) | 9.27 µM (inactive) | 3.66 µM (inactive) | 13.9 µM (inactive) | > 100 µM (inactive) | 2.08 µM (inactive) | 4.54 µM (inactive) | 4.48 µM (inactive) |  | 
6 | CC(=O)Nc1nnc(S(=O)(=O)NC(=S)Nc2ccc(Cl)cc2)s1 | > 100 µM (inactive) | > 100 µM (inactive) |  | > 100 µM (inactive) | > 100 µM (inactive) | > 100 µM (inactive) | > 100 µM (inactive) | > 100 µM (inactive) | > 100 µM (inactive) | > 100 µM (inactive) | > 100 µM (inactive) | > 100 µM (inactive) | > 100 µM (inactive) | > 100 µM (inactive) | > 100 µM (inactive) | > 100 µM (inactive) | > 100 µM (inactive) | > 100 µM (inactive) | > 100 µM (inactive) | > 100 µM (inactive)
